Results taken from patent publication US11406642B2, “DNP and DNP prodrug treatment of neuromuscular, neurodegenerative, autoimmune, developmental, traumatic brain injury, concussion, dry eye disease, hearing loss and/or metabolic diseases” (priority 2016, dated 2022).

Legend:
[1] = tested on: dopaminergic neurons; assay: Parkinson model using 6-OHDA; format: in vivo; conditions: chronic treatment
Description: In one embodiment, the invention provides compositions and methods for treating neurodegenerative diseases such as Alzheimer's disease, Parkinson, and Huntington's disease. It is believed that the complete lack of historic success is due to most pharmaceutical industries focusing on a downstream event, such as plaques/tangles, whereas the issue is likely upstream at the mitochondria causing high cellular stress.

[2] = tested on: EAE mouse model of Multiple Sclerosis; assay: EAE MS model (clinical score, body weight); format: in vivo; conditions: for progression of paralysis monitored as Clinical Score: administered 7-days after induction of MOG35-55 myelin peptide; for weight loss / body weight changes: versus Placebo mice
Description: FIG. 1 is a chart illustrating the comparative effect of two compounds of the invention at lowering or blocking progression of paralysis as monitored as a Clinical Score (EAE MS model comparing parent (2,4-DNP) to prodrug (II-38) at equivalent exposures of 5 mpk parent to […] prodrug for efficacy). Legend: diamond—placebo; square—2,4-DNP 5 mpk; triangle—II-38 8 mpk; x—II-38 16 mpk; asterisk—II-38 80 mpk. P values by Ordinal Regression: 2,4-DNP 5 mpk=0.0192; II-38 8 mpk=0.000954; II-38 16 mpk=0.000124; II-38 80 mpk=0.00014 (results from logistic regression model using ordinal package from cran project, www.cran.r-project.org).
Legend: diamond—placebo; square—2,4-DNP 5 mpk; triangle—II-38 8 mpk; x—II-38 16 mpk; asterisk—II-38 80 mpk. All doses significant to preserving body weight. P values by Ordinal Regression: 2,4-DNP 5 mpk=0.0188; II-38 8 mpk<0.0001; II-38 16 mpk=0.044; II-38 80 mpk<0.0001.
In one embodiment, the compositions and methods of the invention relate to a pharmacological intervention that abolishes overt ROS production and improves the quality of the mitochondrial population by mitophagy, induces Brain Derived Neurotrophin Factor (BDNF), increases cAMP, and/or remodels cellular expression. In one embodiment, a drug of the invention thus becomes “disease modifying.” In one embodiment, a prodrug of DNP (II-38) was administered to a mouse model of Multiple Sclerosis, called the EAE, 7-days after induction of the MOG35-55 myelin peptide. The ProDrug of DNP, II-38, was administered at multiples of exposure to 2,4-DNP or DNP. […] Even though DNP historically was used in the 1930's for weight loss at high doses, here it is shown that it can paradoxically be repositioned to prevent wasting associated with neurodegenerative/autoimmune diseases at low doses.

[3] = tested on: noise induced hearing loss; assay: In vivo noise exposure, Compound Action Potential threshold; design: species or system Rats; conditions: for CAP threshold (compound + Noise): noise 8 h, 105 dB, 8-16 kHz, 5 days oral gavage q.d., 2,4-DNP 5 mpk, II-38 80 mpk, 1-week post exposure; for threshold lower than Noise alone group: same study, Noise alone 25 dB
Procedure: In vivo Noise Exposure Pilot DNP (2,4-DNP) & Prodrug of DNP (II-38): Rats, N=6/group: control, noise alone, noise+2,4-DNP (5 mpk), noise+II-38 (80 mpk). Noise exposure: 8 h, 105 dB, noise band 8-16 kHz. Treatment duration 5 days oral gavage q.d. starting day of noise. Endpoint: Compound Action Potential (CAP) recorded from the round window membrane 1-week post exposure. Threshold: intensity in dB SPL needed to produce 4 μV CAP amplitude.

[4] = tested on: spiny neurons; assay: Model of Huntington's disease; format: in vivo; conditions: treatment for over 17-weeks
Description: In one embodiment, the invention provides compositions and methods for treating Huntington's disease. […] DNP should prevent muscle loss since it reduces mitochondrial osmotic swelling by reducing intra-mitochondrial calcium concentration and inducing BDNF, which is a myokine (muscle protectant) outside of the brain.

[5] = Stability in simulated intestinal fluid (SIF), pH 6.8; format: in vitro ADME; conditions: pH 6.8, 37° C.
Procedure: GI: Stability in simulated intestinal fluid (USP, 37° C.)
HPLC analysis was carried out on an Agilent 1200 Infinity Series Quatpump, equipped with a photodiode array detector and a computer integrating apparatus. An Inertsil ODS-3 column, C18, 5 μm, 4.6×50 mm (GL Science Inc. Japan) protected with a guard column: Alltima C18, 5 μm, 4.6×7.5 mm (Grace Discovery Sciences, IL, USA) was used as the stationary phase. An isocratic method with a mobile phase consisting of water/acetonitrile (70:30) containing 0.05% formic acid in each was used. A flow rate of 0.9 mL/min was used and detection was carried out at a UV wavelength of 250 nm.
Formulation of II-38 in SIF buffer, pH 6.8: to formulate 1 mg/mL of II-38 in SIF, 2.6 mg of II-38 was dissolved in 0.13 mL of DMSO (i.e. 5%) and titrated slowly and gradually to a total volume of 2.47 mL of preheated SIF (Table 4) in a cell diffusion chamber preheated to 37° C. The solution was mixed for 30 sec every half an hour using magnetic stirrer. Samples of 20 μL (20 μg/mL of II-38) were collected at 0, 0.5, 1, 2, 4, 6 and 8 h (FIGS. 12A and 12B). Each sample was mixed with acetonitrile QS to 1 mL, vortex-mixed for 30 sec and centrifuged at 10,000 rpm at room temp. A volume of 10 μL of the supernatant was injected into the HPLC spectrometer (FIG. 11).

Compound | protection of dopaminergic neurons [1] | progression of paralysis monitored as Clinical Score [2] | weight loss / body weight changes [2] | CAP threshold (compound + Noise) [3] | threshold lower than Noise alone group [3] | effect on spiny neurons [4] | stability in SIF [5]
O=[N+]([O-])c1ccc(O)c([N+](=O)[O-])c1 [2,4-DNP, 2,4-dinitrophenol] | positive protective effect | striking effect at lowering or blocking progression of paralysis | preventing weight loss seen in the Placebo mice | 15 dB | about 10 dB | protection on the spiny neurons | –
O=C(Oc1ccc([N+](=O)[O-])cc1[N+](=O)[O-])N1CCOCC1 [II-38, 2,4-Dinitrophenyl morpholine-4-carboxylate] | – | striking effect at lowering or blocking progression of paralysis | preventing weight loss seen in the Placebo mice | 5 dB | approximately 20 dB | – | stable
